Data published in PubChem BioAssay (NCI).
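Protocol summary: plate cells (96-well), add compound at 5 concentrations, incubate 48 h, interpolate endpoints linearly. TGI denotes the concentration required for complete inhibition of growth.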

How the values were obtained:
Assay in all cases: NCI tumour cell line growth inhibition, 48 h
[1] = system: M14 melanoma
[2] = system: NCI-H460 lung
[3] = system: OVCAR-8 ovarian
[4] = system: BT-549 breast
[5] = system: HCT-15 colon
[6] = system: SNB-75 CNS
[7] = system: SK-OV-3 ovarian
[8] = system: MOLT-4 leukemia
[9] = system: NCI-H226 lung
[10] = system: COLO 205 colon
[11] = system: OVCAR-4 ovarian
[12] = system: OVCAR-5 ovarian
[13] = system: RXF 393 renal
[14] = system: SW-620 colon
[15] = system: HOP-92 NSCLC
[16] = system: OVCAR-3 ovarian
[17] = system: ACHN renal
[18] = system: UACC-62 melanoma
[19] = system: MDA-N

CC(=O)OCC1OC(c2c(OC(C)=O)cc(C)c3c(=O)cc(/C(C(C)=O)=C(\C)O)oc23)C(OC(C)=O)C(OC(C)=O)C1OC(C)=O (centres undefined)
TGI [1]: > 100 µM
TGI [2]: > 100 µM
TGI [3]: > 100 µM
TGI [4]: > 100 µM
TGI [5]: > 100 µM
TGI [6]: > 100 µM
TGI [7]: > 100 µM
TGI [8]: > 100 µM
TGI [9]: > 100 µM
TGI [10]: > 100 µM
TGI [11]: > 100 µM
TGI [12]: > 100 µM
TGI [13]: > 100 µM
TGI [14]: > 100 µM
TGI [15]: > 100 µM
TGI [16]: > 100 µM
TGI [17]: > 100 µM
TGI [18]: > 100 µM
TGI [19]: > 100 µM

Cc1cc2nc(C=C(C(F)(F)F)C(F)(F)F)sc2cc1C
TGI [1]: 3.31 µM
TGI [2]: 16 µM
TGI [3]: 4.4 µM
TGI [4]: 4.64 µM
TGI [5]: 8.91 µM
TGI [6]: 10.3 µM
TGI [7]: 32.7 µM
TGI [8]: > 100 µM
TGI [9]: 6.79 µM
TGI [10]: 13.7 µM
TGI [11]: 14.9 µM
TGI [12]: 8.66 µM
TGI [13]: 3.68 µM
TGI [14]: 10.7 µM
TGI [15]: 16.2 µM
TGI [16]: 5.63 µM
TGI [17]: 7.48 µM
TGI [18]: 4.98 µM
TGI [19]: > 19.8 µM

O=C1CSC(c2ccccc2)N1c1ccc(-n2c(-c3ccccc3)nc3ccccc3c2=O)cc1 (centres undefined)
TGI [1]: > 100 µM
TGI [2]: > 100 µM
TGI [3]: > 100 µM
TGI [4]: > 100 µM
TGI [5]: > 100 µM
TGI [6]: > 100 µM
TGI [7]: > 100 µM
TGI [8]: > 100 µM
TGI [9]: > 100 µM
TGI [10]: > 100 µM
TGI [11]: > 100 µM
TGI [12]: > 100 µM
TGI [13]: > 100 µM
TGI [14]: > 100 µM
TGI [15]: > 100 µM
TGI [16]: > 100 µM
TGI [17]: > 100 µM
TGI [18]: > 100 µM
TGI [19]: > 100 µM

O=C1OC(C2Cc3ccc4c(c3C2=O)CCC4)c2ccccc21 (centres undefined)
TGI [1]: > 100 µM
TGI [2]: > 100 µM
TGI [3]: > 100 µM
TGI [4]: > 100 µM
TGI [5]: > 100 µM
TGI [6]: > 100 µM
TGI [7]: > 100 µM
TGI [8]: > 100 µM
TGI [9]: 83.6 µM
TGI [10]: 45.8 µM
TGI [11]: > 100 µM
TGI [12]: > 100 µM
TGI [13]: > 100 µM
TGI [14]: > 100 µM
TGI [15]: > 100 µM
TGI [16]: > 100 µM
TGI [17]: > 100 µM
TGI [18]: > 100 µM
TGI [19]: > 100 µM

O/N=C(/CC(O)(C(F)(F)F)C(F)(F)F)c1ccccc1
TGI [1]: > 10 µM
TGI [2]: > 10 µM
TGI [3]: > 10 µM
TGI [4]: > 10 µM
TGI [5]: > 10 µM
TGI [6]: > 10 µM
TGI [7]: > 10 µM
TGI [8]: > 10 µM
TGI [9]: > 10 µM
TGI [10]: > 10 µM
TGI [11]: > 10 µM
TGI [12]: > 10 µM
TGI [13]: > 10 µM
TGI [14]: > 10 µM
TGI [15]: > 10 µM
TGI [16]: > 10 µM
TGI [17]: > 10 µM
TGI [18]: > 10 µM
TGI [19]: > 10 µM

CC(=O)OCC1OC(N2C(c3ccccc3)=CC(c3ccco3)C(C#N)=C2S)C(OC(C)=O)C(OC(C)=O)C1OC(C)=O (centres undefined)
TGI [1]: 16.9 µM
TGI [2]: > 62.2 µM
TGI [3]: 12.1 µM
TGI [4]: > 100 µM
TGI [5]: > 100 µM
TGI [6]: 8.9 µM
TGI [7]: 59 µM
TGI [8]: > 75.4 µM
TGI [9]: 24.3 µM
TGI [10]: 28.5 µM
TGI [11]: 9.16 µM
TGI [12]: 22 µM
TGI [13]: 15.7 µM
TGI [14]: 4.2 µM
TGI [15]: 26.9 µM
TGI [16]: 18.3 µM
TGI [17]: 24.8 µM
TGI [18]: 65 µM
TGI [19]: > 53.9 µM
